Starred links: 1 amine or outer side, 2 acyl side, 3 side chain; linkers in the order of their positions; H or OH if unused. Positions of bridges follow the written chain, without caps; N, C: chain ends. Non-standard residues stand in square brackets, D forms with d. Residues, ends and D or L forms follow the SMILES beside them. X1 = O=C([C@@H]1C[C@H](n2cc(C3=CC=C[CH]3[Fe][CH]3C=CC=C3)nn2)CN1[*:1])[*:2]
How the values were obtained:
[1] = system: HIV-1 gp120; conditions: for Activity in SPR competition binding to gp120 (in words): dual receptor site (sCD4 and 17b) inhibition
[2] = system: trypsin; conditions: 37 °C, 5-hour incubation
[3] = system: chymotrypsin

Structure (SMILES) | Activity in SPR competition binding to gp120 (in words) [1] | Enhancement of activity of macrocycle 7 vs 2 ([1]; SPR, shorter green linker (Asp instead of Glu)) | Stability to trypsin (in words) [2] | Stability to chymotrypsin (in words) ([3]; 37 °C, 5-hour incubation) | Stability to chymotrypsin (in words), 30 min ([3]; 37 °C, 30 minute incubation) | Intactness after chymotrypsin digestion (in words), 40 h ([3]; 40 h incubation, HPLC and ESI-MS)
CC[C@H](C)[C@H](N)C(=O)N[C@H]1CCC(=O)NCCCC[C@@H](C(N)=O)NC(=O)[C@H](Cc2c[nH]c3ccccc23)NC(=O)[C@@H]2C[C@H](n3cc(C4=CC=C[CH]4[Fe][CH]4C=CC=C4)nn3)CN2C(=O)[C@H]([C@@H](C)CC)NC(=O)[C@H](CC(N)=O)NC1=O (stereo partly shown) [Compound 4] (H-IENI[X1]WK-NH2; lactam 2-7; N-terminus and C-terminus assumed) | enhanced dual receptor site antagonizing activities compared to their non-ferrocene analogues | – | – | – | – | –
CC[C@H](C)[C@@H]1NC(=O)[C@H](CC(N)=O)NC(=O)[C@@H](N)CC(=O)NCCCC[C@@H](C(N)=O)NC(=O)[C@H](Cc2c[nH]c3ccccc23)NC(=O)[C@@H]2C[C@H](n3cc(CCc4ccccc4)nn3)CN2C1=O [Compound 7] | – | almost two-fold enhanced activity | completely resistant | completely resistant | almost unchanged | remained intact
CC[C@H](C)[C@@H]1NC(=O)[C@H](CC(N)=O)NC(=O)[C@@H](N)CC(=O)NCCCC[C@@H](C(N)=O)NC(=O)[C@H](Cc2c[nH]c3ccccc23)NC(=O)[C@@H]2C[C@H](n3cc(C4=CC=C[CH]4[Fe][CH]4C=CC=C4)nn3)CN2C1=O (stereo partly shown) [Compound 9] (H-DNI[X1]WK-NH2; lactam 1-6; C-terminus assumed) | enhanced dual receptor site antagonizing activities compared to their non-ferrocene analogues | – | – | – | – | –
